These are literature values, as cited in article PMC6915683, “Characterization of Maltase and Sucrase Inhibitory Constituents from Rhodiola crenulata” (Foods, 2019).

The test system of data set [1] is sucrase. Also on record: method as in PMID 21765605. Conditions: kinetics analysis; cited from earlier work.
Data set [2] concerns the target rat maltase. Set-up: method as in PMID 28914528. The settings on record: cited from earlier work.
On the set-up of data set [3]: method as in PMID 18756586. The settings on record: daily consumption for three years, compared to control group not consuming acarbose; cited from earlier work.
Data set [4] deals with rat sucrase. Also on record: method as in PMID 28914528. Conditions: cited from earlier work.

Consider `C[C@@H]1O[C@@H](OC[C@H]2O[C@@H](Oc3cc4c(O)cc(O)cc4[o+]c3-c3ccc(O)c(O)c3)[C@H](O)[C@@H](O)[C@@H]2O)[C@H](O)[C@H](O)[C@H]1O` [cyanidin-3-rutinoside], for which the “mode of inhibition of sucrase” value in data set [1] was “mixed-type manner”.
In the case of `C[C@H]1O[C@H](O[C@H]2[C@H](O)[C@@H](O)[C@@H](O[C@H]3[C@H](O)[C@@H](O)C(O)O[C@@H]3CO)O[C@@H]2CO)[C@H](O)[C@@H](O)[C@@H]1N[C@H]1C=C(CO)[C@@H](O)[C@H](O)[C@H]1O` (stereo partly shown) [acarbose], the 50% inhibitory concentration (IC50) (as a rule, the concentration at which inhibition is half-maximal) is 0.42 ± 0.02 µM in data set [2] and 12.3 ± 0.6 µM in data set [4]. For the same molecule, the “reduction of the risk of developing type 2 diabetes” value in data set [3] was 6%.
